# Measured values: ChEMBL document CHEMBL1201862, “PubChem BioAssay data set” (2004)
# Calls of active or inactive are those of the source.
# Key:
# [1] = blockers of HIV-1 ZM109 envelope-driven cell-cell fusion – HeLa effector, CEM target cells, luciferase, cherry-pick, dose response (AID 652058); type: functional, cell-based;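 note: luciferase signal from HIV-1 Env mediated cell-cell fusion of effector and target cells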
# [2] = system: A-375; assay: MITF: Counter assay: A375 proliferation Measured in Cell-Based System Using Plate Reader - 2084-03_Inhibitor_Dose_DryPowder_Activity. [Related pubchem assays (depositor defined):AID488944]; type: functional; conditions: Homo sapiens
# [3] = viability of PTEN-deleted HCT116 cells – cell-based, HCT116 PTEN knockout, dose response (AID 1047); type: functional;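 note: HCT116 colon tumor cells with PTEN knocked out; cells exposed to compound for 60 hours before readout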
# [4] = viability loss in CEM21 cells – cell-based, CellTiter-Glo luminescence, cherry-picked, cytotoxicity control for viral fusion inhibitor project, dose response (AID 652042); type: functional;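 note: potency for signal decrease meaning cytotoxicity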
# [5] = viability of HCT116 lacking mutant beta-catenin – cell-based, human colon tumor, dose response (AID 1045); type: functional;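 note: HCT116 colon tumor cells with beta catenin knocked out; cells exposed to compound for 60 hours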
# [6] = system: INS1; assay: INS-1E survival protection against cytokine death – cell-based, luminescence, retest, dose response (AID 449756); type: functional;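 note: cell death triggered by IL-1 beta plus TNF-alpha plus IFN-gamma mixture; protective hits raise ATP signal compared with cytokine alone wells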
# [7] = blockers of HIV-1 envelope-mediated cell-cell fusion – cherry-pick, dose response (AID 652057); type: functional, cell-based
# [8] = HIV-1 AD8 envelope cell-cell fusion blockers – cherry-pick, dose response (AID 652062); type: functional, cell-based;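 note: luciferase signal from cell-cell fusion driven by HIV-1 clade B AD8 Env; potency is for inhibitors of fusion seen as a drop in luminescence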
# [9] = molecular target: T1, Microphthalmia-associated transcription factor (Homo sapiens, UniProt O75030); assay: reducers of TRPM1 reporter luminescence, concentration series – cell-based, SK-MEL-5, cherry-picked, set 3, MITF inhibitor project, dose response (AID 493073); type: functional;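 note: SK-MEL-5 melanoma cells with luciferase driven by the MITF target TRPM1 promoter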
# T1 sequence (O75030 whole entry): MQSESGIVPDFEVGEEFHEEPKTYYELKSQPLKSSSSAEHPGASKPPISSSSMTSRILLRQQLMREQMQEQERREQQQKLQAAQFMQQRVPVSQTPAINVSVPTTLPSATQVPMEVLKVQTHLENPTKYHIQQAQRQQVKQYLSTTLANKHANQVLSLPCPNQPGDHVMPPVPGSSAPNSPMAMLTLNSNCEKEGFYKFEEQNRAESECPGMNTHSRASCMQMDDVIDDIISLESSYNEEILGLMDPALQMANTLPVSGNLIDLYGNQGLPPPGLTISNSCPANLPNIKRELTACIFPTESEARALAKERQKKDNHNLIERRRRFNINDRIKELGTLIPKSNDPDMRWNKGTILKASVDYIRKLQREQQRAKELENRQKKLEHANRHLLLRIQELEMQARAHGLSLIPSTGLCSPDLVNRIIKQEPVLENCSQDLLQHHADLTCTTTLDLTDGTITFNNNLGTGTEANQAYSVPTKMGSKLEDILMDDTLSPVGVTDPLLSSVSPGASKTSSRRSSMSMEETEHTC
# [10] = system: Jurkat; assay: blockers of NF-kB activation in T cells – Jurkat, luciferase reporter, luminescence, B- and T-cell, dose response (AID 489004); type: functional, cell-based; conditions: Homo sapiens;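 note: NF-kB luciferase reporter Jurkat cells stimulated with PMA plus ionomycin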
# [11] = fluconazole-exposed Candida albicans growth modulators – fluorescence, retest, confirmation (AID 2467); type: functional, cell-based
# [12] = alpha-synuclein stem-loop luciferase translation blockers – H4 neuroglioma cells, luminescence, confirmation (AID 1988); type: functional, cell-based
# [13] = HEK-293T viability loss, compound-treated – cell-based, uHTS hits, cytotoxicity control for B/T-cell NF-kB inhibitor project, dose response (AID 489019); type: functional;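 note: IC50 reflects cytotoxicity as loss of cell viability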
# [14] = NIH-3T3 fibroblast cytotoxicity, dose response, cytotoxicity control, cell-based, fluorescence, Alamar Blue, secondary assay (AID 2327); type: functional;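 note: NIH-3T3 mouse fibroblasts cultured with fluconazole at 8 µg/mL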
# [15] = luciferase reporter signal suppression in cells – H4 neuroglioma cells, luminescence, dose response (AID 1990); type: functional, cell-based
# [16] = Luminescence Cell-Based Dose Response HTS to Identify Inhibitors of 5'UTR Stem-Loop Driven Prion Protein mRNA Translation in H4 Neuroglioblastoma Cells. [Related pubchem assays: 1827 (Project Summary), 1813 (Primary HTS)]; type: functional
# [17] = system: Candida albicans; assay: Candida growth inhibition combined with fluconazole – CaCi-2 strain, Alamar Blue, dry powder, set 3, dose response (AID 488907); type: functional, organism-based
# [18] = system: Jurkat; assay: SAR Analysis of small molecule inhibitors of […] specific antigen receptor-induced NF-kB activation in a Jurkat cell line using a luminescence assay - Set 3. [Related pubchem assays (depositor defined):AID435022, AID435025, AID465]; type: functional, cell-based; conditions: Homo sapiens
# [19] = system: HEK293; assay: SAR Analysis of small molecule inhibitors of B-cell specific antigen receptor-induced NF-kB activation in a HEK-293T cell line using a luminescence assay - Set 2. [Related pubchem assays (depositor defined):AID435022, AID435025, AID489021]; type: functional, cell-based; conditions: Homo sapiens
# [20] = system: HEK293; assay: HEK293T cell viability loss, resazurin readout – resazurin fluorescence, cytotoxicity control for NF-kB activator project, SAR follow-up (AID 493251); type: functional, cell-based; conditions: Homo sapiens
# [21] = HEK-293T viability loss after treatment – luminescence, T-cell screen hits, cytotoxicity control for TCR NF-kB inhibitor project, dose response (AID 489026); type: functional, cell-based;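 note: cells exposed to compound about 14 hours before the viability readout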
# [22] = molecular target: T2, Kappa-type opioid receptor (Homo sapiens, UniProt P41145); type: functional
# [23] = system: Streptococcus; assay: GAS UMAA2166 growth inhibition – luminescence, BacTiterGlo, counter-screen for streptokinase expression inhibitor project, dose response (AID 1915); type: functional, organism-based;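 note: potency for reduction of bacterial viability or growth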
# [24] = system: Streptococcus sp. 'group A'; assay: Streptococcus pyogenes SK(-)GAS viability under kanamycin – luminescence, BacTiterGlo, confirmation, counter-screen for streptokinase expression inhibitor project, dose response (AID 1900); type: functional, organism-based
# [25] = reduction of Shn3 3'UTR-driven luciferase in osteoblasts – cell-based, Clone20 osteoblasts, firefly luciferase, cherry-picked, dose response (AID 624132); type: functional;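 note: firefly luciferase luminescence from reporter carrying the Shn3 3'UTR in osteoblasts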
# [26] = molecular target: Mu-type opioid receptor (Homo sapiens, UniProt P35372); assay: HTS Image-Based Screen for Agonists of the MOR Receptor. [Related pubchem assays (depositor defined):AID1777, AID1785, AID1786, AID2133]; type: functional;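 note: imaging of beta-arrestin GFP recruitment into spots after receptor activation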
# [27] = molecular target: T3, fMet-Leu-Phe receptor (Homo sapiens, UniProt P21462); assay: formyl peptide receptor binders – dose response (AID 519); type: functional
# T3 sequence (P21462 whole entry): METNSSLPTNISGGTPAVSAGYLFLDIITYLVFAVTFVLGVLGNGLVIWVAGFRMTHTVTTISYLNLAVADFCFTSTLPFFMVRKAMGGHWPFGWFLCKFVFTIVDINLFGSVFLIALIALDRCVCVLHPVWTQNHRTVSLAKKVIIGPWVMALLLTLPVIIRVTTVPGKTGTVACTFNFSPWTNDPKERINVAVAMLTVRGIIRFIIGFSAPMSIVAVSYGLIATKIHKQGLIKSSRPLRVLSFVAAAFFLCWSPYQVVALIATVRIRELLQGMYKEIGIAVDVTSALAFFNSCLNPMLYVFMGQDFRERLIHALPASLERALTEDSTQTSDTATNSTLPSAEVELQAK
# [28] = molecular target: T4, Delta-type opioid receptor (Homo sapiens, UniProt P41143); assay: HTS Image-Based Screen for Agonists of the DOR Receptor. [Related pubchem assays (depositor defined):AID1777, AID1786, AID2133]; type: functional
# [29] = molecular target: T4, Delta-type opioid receptor; assay: HTS Image-Based Screen for Antagonists of the DOR Receptor. [Related pubchem assays (depositor defined):AID1777, AID1785, AID1786, AID2133]; type: functional
# [30] = molecular target: T5, Streptokinase A (Streptococcus pyogenes serotype M1, UniProt P10520); assay: viability-normalized secreted streptokinase activity reduction – plasminogen activation absorbance, OD405, dose response (AID 1914); type: functional, Streptococcus pyogenes M1 GAS;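 note: secreted streptokinase activity via plasminogen activation per viability signal from cell pellet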
# T5 sequence (P10520 whole entry): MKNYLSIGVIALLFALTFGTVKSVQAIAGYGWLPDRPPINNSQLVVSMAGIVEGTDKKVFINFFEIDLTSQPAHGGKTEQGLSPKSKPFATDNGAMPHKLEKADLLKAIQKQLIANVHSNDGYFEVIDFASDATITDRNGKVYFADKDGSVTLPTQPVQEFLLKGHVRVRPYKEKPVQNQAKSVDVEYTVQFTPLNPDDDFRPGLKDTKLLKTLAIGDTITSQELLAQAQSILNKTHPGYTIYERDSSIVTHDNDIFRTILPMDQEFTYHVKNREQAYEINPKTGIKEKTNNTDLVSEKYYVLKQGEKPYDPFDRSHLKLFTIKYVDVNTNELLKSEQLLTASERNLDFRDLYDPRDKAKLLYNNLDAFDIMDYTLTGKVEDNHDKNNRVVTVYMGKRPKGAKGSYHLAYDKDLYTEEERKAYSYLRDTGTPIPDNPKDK
# [31] = molecular target: T2, Kappa-type opioid receptor; type: functional; remark: listed apart in the source
# [32] = non-specific 3'UTR reporter inhibition in Clone20-Shn3RL – cell-based, Renilla luciferase, cherry-picked, counter-screen for Shn3 inhibitor project, dose response (AID 624133); type: functional
# [33] = molecular target: Beta-galactosidase (Escherichia coli, UniProt Q8VNN2); type: functional
# [34] = system: CHO; assay: CHO cell viability loss, potency – luminescence, cytotoxicity control for TLR9-MyD88 binding inhibitor project, dose response (AID 588339); type: functional, cell-based, hamster; conditions: Cricetulus griseus;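 note: CHO cells stably coexpressing TLR9 and MyD88 fusions from primary screen; compound exposure lasted 48 hours before viability readout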
# [35] = molecular target: Beta Lactamase (Pseudomonas aeruginosa, UniProt Q932Y6); assay: BLA reporter interference, concentration series – BLA reporter cells, FRET fluorescence, artefact control for TLR9-MyD88 binding inhibitor project, dose response (AID 588341); type: cell-based;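 note: cell based assay in CHO-K1 cells stably expressing beta-lactamase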
# [36] = loss of viability in HepG2 cells – cell-based, CellTiter-Glo, cherry-picked, cytotoxicity control for Shn3 inhibitor project, dose response (AID 624134); type: functional
# T2 sequence (P41145 whole entry): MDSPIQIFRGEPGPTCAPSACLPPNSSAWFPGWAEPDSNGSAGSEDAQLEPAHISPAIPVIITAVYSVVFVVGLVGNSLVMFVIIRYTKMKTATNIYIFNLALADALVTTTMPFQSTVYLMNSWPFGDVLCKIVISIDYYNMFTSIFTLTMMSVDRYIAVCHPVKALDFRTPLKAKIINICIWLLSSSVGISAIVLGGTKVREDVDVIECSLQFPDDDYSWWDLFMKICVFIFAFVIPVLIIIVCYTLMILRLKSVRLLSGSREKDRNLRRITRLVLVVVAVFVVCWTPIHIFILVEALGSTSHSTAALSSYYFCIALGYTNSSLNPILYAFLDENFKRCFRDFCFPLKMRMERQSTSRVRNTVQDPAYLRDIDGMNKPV
# T4 sequence (P41143 whole entry): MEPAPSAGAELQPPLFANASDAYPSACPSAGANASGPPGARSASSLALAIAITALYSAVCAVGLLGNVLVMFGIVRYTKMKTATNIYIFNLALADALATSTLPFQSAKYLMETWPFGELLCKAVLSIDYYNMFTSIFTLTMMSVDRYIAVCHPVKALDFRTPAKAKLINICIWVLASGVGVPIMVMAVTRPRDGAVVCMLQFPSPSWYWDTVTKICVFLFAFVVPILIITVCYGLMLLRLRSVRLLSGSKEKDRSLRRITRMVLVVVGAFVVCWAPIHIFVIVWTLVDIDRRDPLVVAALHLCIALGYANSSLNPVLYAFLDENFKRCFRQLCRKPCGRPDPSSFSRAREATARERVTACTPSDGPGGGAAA
# Chain of Beta-galactosidase (Q8VNN2 whole entry, the tested form may be a part): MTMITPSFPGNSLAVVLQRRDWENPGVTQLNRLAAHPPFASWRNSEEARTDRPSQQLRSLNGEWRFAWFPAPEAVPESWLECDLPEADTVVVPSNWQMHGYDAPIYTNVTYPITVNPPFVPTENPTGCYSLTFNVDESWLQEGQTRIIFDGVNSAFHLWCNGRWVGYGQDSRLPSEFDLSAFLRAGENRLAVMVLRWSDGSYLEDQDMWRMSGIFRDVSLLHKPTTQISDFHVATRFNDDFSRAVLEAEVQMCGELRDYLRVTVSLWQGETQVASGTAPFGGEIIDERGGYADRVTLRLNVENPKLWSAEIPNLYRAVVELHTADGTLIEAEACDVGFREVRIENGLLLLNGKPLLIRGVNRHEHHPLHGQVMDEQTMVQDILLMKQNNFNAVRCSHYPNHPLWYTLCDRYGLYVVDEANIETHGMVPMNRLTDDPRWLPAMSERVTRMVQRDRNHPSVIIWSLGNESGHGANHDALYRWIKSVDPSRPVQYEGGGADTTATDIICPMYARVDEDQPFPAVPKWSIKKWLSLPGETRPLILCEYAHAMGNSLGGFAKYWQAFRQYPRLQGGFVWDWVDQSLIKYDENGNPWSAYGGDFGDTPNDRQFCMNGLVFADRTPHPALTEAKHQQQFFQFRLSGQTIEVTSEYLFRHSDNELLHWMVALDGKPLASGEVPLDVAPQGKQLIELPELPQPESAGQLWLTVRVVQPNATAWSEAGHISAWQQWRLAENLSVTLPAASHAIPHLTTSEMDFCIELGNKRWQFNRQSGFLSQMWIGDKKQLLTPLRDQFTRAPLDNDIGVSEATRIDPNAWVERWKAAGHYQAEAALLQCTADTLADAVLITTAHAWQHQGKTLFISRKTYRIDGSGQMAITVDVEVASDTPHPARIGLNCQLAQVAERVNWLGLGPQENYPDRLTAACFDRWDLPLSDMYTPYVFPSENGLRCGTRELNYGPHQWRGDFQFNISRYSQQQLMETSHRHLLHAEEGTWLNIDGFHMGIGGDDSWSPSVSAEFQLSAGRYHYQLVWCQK
# Chain of Beta Lactamase (Q932Y6 whole entry): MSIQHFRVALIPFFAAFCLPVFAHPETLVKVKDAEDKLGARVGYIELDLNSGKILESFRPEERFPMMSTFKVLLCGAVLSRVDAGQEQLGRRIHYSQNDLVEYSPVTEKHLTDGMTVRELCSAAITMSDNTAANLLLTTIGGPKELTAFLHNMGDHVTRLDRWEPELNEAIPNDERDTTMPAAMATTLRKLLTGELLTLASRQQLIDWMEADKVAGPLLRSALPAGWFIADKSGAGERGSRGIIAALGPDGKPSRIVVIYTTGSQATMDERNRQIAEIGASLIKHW
# Chain of Mu-type opioid receptor (P35372 whole entry): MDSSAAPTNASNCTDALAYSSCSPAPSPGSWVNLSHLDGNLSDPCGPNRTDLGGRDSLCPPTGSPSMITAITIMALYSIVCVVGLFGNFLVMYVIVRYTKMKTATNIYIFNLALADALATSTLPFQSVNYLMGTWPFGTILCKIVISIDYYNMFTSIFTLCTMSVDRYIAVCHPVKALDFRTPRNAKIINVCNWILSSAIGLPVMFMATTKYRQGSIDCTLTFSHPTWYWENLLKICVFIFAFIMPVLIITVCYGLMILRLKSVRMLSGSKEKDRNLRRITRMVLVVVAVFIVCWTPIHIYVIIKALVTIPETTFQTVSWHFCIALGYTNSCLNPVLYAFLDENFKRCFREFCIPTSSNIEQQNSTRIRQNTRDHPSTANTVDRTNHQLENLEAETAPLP
smiles,measurement,setting,value
CC1CCC(C(C)C)C(OC(=O)Cn2c(-c3ccccc3)[n+](C)c3ccccc32)C1 (stereo not drawn),AC50,[1],4.62 µM (active)
same,AC50,[2],41.3 µM (active)
same,EC50,[3],3.06 µM (active)
same,AC50,[4],8.36 µM (active)
same,EC50,[5],2.97 µM (active)
same,AC50,"[6]; Rattus norvegicus, INS1",3.2 µM (active)
same,AC50,[6]; ins1,2.71 µM (active)
same,AC50,[7],6.82 µM (active)
same,AC50,[8],5.44 µM (active)
same,AC50,[9],2.37 µM (active)
COc1cc([N+](=O)[O-])cc(/C=N/NC(=O)c2ccc(NC(=O)c3ccc(C)cc3)cc2)c1O,IC50,[10],6.36 µM (active)
same,EC50,[11],1.49 µM (active)
same,EC50,[12],1.88 µM (active)
same,IC50,[13],> 80 µM (inactive)
same,EC50,[14],1.01 µM (inconclusive)
same,EC50,[15],2.62 µM (active)
same,EC50,[16],2.62 µM (active)
same,AC50,[9],1.55 µM (active)
O=C(C1CCCCC1)N1CCN(c2ccccn2)CC1,AC50,[17],0.398 µM (active)
CCOc1ccc(-c2nc(CSCC(=O)NCc3cccnc3)c(C)o2)cc1,IC50,[18],72.6 µM (inactive)
same,IC50,[19],24.2 µM (inactive)
same,IC50,[20],65 µM (inactive)
O=S(=O)(Nc1cccc2ncccc12)c1cccs1,IC50,[21],> 80 µM (inactive)
same,IC50,[22],2.64 µM (active)
same,EC50,[23],7.13 µM (active)
same,EC50,[24],3.58 µM (active)
same,AC50,[25],4.3 µM (active)
same,EC50,[26],> 32 µM (inactive)
same,Ki,[27],> 66.7 µM (inactive)
same,EC50,[28],> 32 µM (inactive)
same,EC50,[12],11.8 µM (active)
same,IC50,[29],> 32 µM (inactive)
same,EC50,[3],1.97 µM (active)
same,EC50,[30],> 150 µM (not active)
same,IC50,[31],> 32 µM
same,AC50,[32],13.2 µM (active)
same,EC50,[33],> 31.5 µM (inactive)
same,EC50,[15],15.3 µM (active)
same,EC50,[5],1.62 µM (active)
same,IC50,[34],4.34 µM (active)
same,EC50,[16],7.05 µM (active)
same,IC50,[35],> 49.7 µM (inactive)
same,AC50,[36],6.33 µM (active)
